Test results from ChEMBL document CHEMBL1201862, “PubChem BioAssay data set” (2004).
Active and inactive are the calls of the source.

How the values were obtained:
[1] = target: Dual specificity tyrosine-phosphorylation-regulated kinase 1A (Rattus norvegicus, UniProt Q63470); assay type: biochemical, Homo sapiens
[2] = target: Peroxisome proliferator-activated receptor gamma/Nuclear receptor coactivator 3 (Homo sapiens, UniProt P37231); test: (§1) TR-FRET dose response biochemical High Throughput Screening assay for agonists of the steroid receptor coactivator 3 (SRC-3) recruitment by the peroxisome proliferator-activated receptor gamma (PPAR gamma): non-selective agonists. [Related pubchem assays: 1301 (Confirmation screen.), 1048 (Primary screen.)]; assay type: functional
[3] = target: T1, Heat shock factor protein 1 (Mus musculus, UniProt P38532); test: inhibition of MG132-induced HSE-luciferase signal, confirmation, cell-based, NIH3T3, luminescence, dose retest (AID 2382); assay type: functional;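 note: NIH3T3 fibroblasts with HSF1-driven luciferase reporter stressed by proteasome inhibitor MG132; luminescence from HSF1-driven luciferase expression after 8 hours of MG132 stress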
T1 sequence (P38532 whole entry): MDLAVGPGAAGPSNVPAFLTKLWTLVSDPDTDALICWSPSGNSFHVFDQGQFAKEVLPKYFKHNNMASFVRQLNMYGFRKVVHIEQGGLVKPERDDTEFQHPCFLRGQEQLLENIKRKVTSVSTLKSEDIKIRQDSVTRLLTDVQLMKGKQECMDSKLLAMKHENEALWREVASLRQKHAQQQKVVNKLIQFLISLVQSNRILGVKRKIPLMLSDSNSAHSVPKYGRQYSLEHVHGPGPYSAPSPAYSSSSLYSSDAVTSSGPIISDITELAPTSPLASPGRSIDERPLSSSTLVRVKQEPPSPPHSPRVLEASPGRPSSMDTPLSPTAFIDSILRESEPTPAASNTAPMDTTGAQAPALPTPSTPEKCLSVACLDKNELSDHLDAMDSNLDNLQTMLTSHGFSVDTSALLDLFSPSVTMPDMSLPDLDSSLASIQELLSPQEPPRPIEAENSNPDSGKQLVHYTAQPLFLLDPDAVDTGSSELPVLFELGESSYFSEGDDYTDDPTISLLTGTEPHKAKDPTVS

[4] = target: Peroxisome proliferator-activated receptor gamma/Nuclear receptor coactivator 1 (Homo sapiens, UniProt P37231); test: as §1, with “1 (SRC-1)” for “3 (SRC-3)”, “assays (depositor defined):AID1300, AID1808, AID504735, AID631]” for “assays: 1301 (Confirmation screen.), 1048 (Primary screen.)]”; assay type: protein assay
[5] = target: Peroxisome proliferator-activated receptor gamma/Nuclear receptor coactivator 2 (Homo sapiens, UniProt P37231); test: TR-FRET dose response biochemical High Throughput Screening assay for agonists of the steroid receptor coactivator 2 (SRC-2) recruitment by the peroxisome proliferator-activated receptor gamma (PPAR gamma): non-selective agonists. [Related pubchem assays: 1297, 1032 ]; assay type: functional
[6] = target: T2, Type-1 angiotensin II receptor (Homo sapiens, UniProt P30556); test: AT1 receptor antagonists, dose response, selectivity assay for APJ receptor antagonist project, cell-based, uHTS hits (AID 463214); assay type: functional;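 note: antagonist potency against angiotensin II stimulated AT1 response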
T2 sequence (P30556 whole entry): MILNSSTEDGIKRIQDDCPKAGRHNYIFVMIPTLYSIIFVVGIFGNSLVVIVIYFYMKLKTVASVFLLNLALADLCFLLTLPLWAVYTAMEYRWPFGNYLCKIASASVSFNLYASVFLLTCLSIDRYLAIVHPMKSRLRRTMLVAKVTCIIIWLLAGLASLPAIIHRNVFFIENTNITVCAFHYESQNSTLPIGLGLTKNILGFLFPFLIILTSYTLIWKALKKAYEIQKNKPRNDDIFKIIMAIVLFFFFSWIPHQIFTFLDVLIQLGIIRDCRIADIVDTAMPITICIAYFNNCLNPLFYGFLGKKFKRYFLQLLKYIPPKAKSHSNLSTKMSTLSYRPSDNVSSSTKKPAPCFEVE

[7] = target: Beta-galactosidase (Escherichia coli, UniProt Q8VNN2); test: PubChem AID 485352; assay type: functional
[8] = Shn3 3'UTR reporter inhibitors, dose response, cell-based, Clone20 osteoblasts, firefly luciferase, cherry-picked (AID 624132); assay type: functional;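 note: firefly luciferase luminescence from reporter carrying the Shn3 3'UTR in osteoblasts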
[9] = target: Glucose-6-phosphate 1-dehydrogenase (Homo sapiens, UniProt P11413); test: human G6PD enzyme inhibitors, dose response, selectivity assay for P. falciparum G6PD inhibitor project, biochemical, fluorescence (AID 504792); assay type: functional
[10] = HepG2 cell cytotoxicity, dose response, cytotoxicity control for Shn3 inhibitor project, CellTiter-Glo, cherry-picked (AID 624134); assay type: functional, cell-based
[11] = target: T3, Histone-lysine N-methyltransferase NSD2 (Homo sapiens, UniProt O96028); assay type: biochemical
T3 sequence (O96028 whole entry): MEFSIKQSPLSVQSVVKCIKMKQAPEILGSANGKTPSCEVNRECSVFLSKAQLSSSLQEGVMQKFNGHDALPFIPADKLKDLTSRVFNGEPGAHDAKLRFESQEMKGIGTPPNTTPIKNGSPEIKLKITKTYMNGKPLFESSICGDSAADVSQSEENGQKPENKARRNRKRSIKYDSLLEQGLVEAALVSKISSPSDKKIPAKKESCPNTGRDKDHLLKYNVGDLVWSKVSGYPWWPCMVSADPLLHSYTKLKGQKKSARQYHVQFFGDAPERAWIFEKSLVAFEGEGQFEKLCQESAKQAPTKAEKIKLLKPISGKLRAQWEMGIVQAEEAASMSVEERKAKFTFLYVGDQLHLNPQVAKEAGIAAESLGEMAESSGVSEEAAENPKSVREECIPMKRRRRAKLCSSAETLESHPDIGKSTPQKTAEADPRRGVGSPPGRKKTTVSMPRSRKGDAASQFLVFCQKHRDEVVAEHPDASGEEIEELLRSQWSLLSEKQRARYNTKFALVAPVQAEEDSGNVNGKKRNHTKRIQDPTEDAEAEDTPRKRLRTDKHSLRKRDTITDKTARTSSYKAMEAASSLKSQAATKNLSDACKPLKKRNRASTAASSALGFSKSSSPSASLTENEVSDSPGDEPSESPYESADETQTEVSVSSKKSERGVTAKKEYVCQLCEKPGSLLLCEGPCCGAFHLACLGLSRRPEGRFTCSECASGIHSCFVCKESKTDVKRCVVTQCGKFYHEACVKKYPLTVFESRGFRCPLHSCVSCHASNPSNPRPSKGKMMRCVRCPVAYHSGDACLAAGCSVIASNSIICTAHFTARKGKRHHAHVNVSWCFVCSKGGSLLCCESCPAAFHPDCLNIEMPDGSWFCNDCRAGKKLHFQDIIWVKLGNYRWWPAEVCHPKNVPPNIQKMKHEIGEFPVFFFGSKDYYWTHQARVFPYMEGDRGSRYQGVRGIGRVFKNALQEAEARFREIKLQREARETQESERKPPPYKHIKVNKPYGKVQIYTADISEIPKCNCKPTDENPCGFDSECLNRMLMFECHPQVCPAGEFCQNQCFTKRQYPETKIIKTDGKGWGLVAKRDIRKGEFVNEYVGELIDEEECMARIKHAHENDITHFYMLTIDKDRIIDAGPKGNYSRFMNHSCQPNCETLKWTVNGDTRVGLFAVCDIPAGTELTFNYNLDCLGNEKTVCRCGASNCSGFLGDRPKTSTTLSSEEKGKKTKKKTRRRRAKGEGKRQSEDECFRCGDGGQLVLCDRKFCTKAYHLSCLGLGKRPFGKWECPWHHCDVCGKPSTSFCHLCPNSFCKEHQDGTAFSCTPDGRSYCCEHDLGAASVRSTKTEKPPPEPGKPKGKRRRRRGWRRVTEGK

[12] = target: Large T antigen (Simian virus 40, UniProt P03070); assay type: functional, Betapolyomavirus macacae;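 note: Confirmatory-stage PubChem screen for compounds that inhibit SV40 T antigen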
[13] = target: T4, Rac GTPase-activating protein 1 (Homo sapiens, UniProt Q9H0H5); test: MgcRacGAP GTPase-activating activity inhibitors, confirmation, biochemical, ADP Hunter fluorescence, primary and confirmatory (AID 624330); assay type: functional
T4 sequence (Q9H0H5 whole entry): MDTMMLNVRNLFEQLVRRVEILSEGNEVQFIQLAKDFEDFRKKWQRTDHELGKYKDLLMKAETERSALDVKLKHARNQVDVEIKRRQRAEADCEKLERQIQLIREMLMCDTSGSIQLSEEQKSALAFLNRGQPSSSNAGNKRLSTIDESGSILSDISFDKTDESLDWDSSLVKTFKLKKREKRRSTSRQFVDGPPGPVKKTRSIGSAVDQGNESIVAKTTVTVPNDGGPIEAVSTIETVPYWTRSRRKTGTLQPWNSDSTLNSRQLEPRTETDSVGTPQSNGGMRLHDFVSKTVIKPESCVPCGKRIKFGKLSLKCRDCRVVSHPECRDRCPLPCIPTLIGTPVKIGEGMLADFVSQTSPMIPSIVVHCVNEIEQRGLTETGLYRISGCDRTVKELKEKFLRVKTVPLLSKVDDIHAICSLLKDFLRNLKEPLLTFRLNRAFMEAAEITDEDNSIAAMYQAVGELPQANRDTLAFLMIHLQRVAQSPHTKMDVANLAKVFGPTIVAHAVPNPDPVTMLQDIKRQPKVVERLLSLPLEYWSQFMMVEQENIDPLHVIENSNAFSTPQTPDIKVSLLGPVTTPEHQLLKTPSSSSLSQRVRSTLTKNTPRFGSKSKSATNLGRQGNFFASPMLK

[14] = HeLa cell cytotoxicity, dose response, cytotoxicity control for MgcRacGAP inhibitor project (AID 624300); assay type: functional
[15] = system: Streptococcus; test: Group A Streptococcus viability loss, dose response, counter-screen for streptokinase expression inhibitor project, luminescence, BacTiterGlo (AID 1915); assay type: functional, organism-based;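 note: potency for reduction of bacterial viability or growth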
[16] = target: T5, Streptokinase A (Streptococcus pyogenes serotype M1, UniProt P10520); test: S. pyogenes streptokinase expression inhibitors, potency, dose response, plasminogen activation absorbance, OD405 (AID 1914); assay type: functional, Streptococcus pyogenes M1 GAS;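 note: secreted streptokinase activity via plasminogen activation per viability signal from cell pellet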
T5 sequence (P10520 whole entry): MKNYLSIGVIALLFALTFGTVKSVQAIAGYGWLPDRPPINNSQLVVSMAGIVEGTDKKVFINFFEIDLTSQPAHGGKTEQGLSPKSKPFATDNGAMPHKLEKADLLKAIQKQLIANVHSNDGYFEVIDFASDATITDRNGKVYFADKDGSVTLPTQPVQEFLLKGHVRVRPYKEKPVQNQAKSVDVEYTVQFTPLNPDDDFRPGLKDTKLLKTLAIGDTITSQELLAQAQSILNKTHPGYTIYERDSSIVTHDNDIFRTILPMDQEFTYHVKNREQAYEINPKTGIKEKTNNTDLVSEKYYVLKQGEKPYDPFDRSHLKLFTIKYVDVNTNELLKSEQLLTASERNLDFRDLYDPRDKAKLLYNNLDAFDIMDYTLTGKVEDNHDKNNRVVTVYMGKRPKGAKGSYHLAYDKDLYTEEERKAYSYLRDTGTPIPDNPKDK

[17] = system: HEK293; test: inhibitors of LMP1-driven NF-kB reporter, dose response, cell-based, HEK293, luciferase, cherry-pick (AID 588343); assay type: functional; conditions: Homo sapiens
[18] = system: Streptococcus sp. 'group A'; test: growth inhibition of control SK(-) GAS strain, dose response, counter-screen for streptokinase expression inhibitor project, luminescence, kanamycin, BacTiterGlo, confirmation (AID 1900); assay type: functional, organism-based
[19] = target: T6, Corticotropin-releasing factor receptor 2/Corticotropin-releasing factor-binding protein (Homo sapiens, UniProt P24387+Q13324); test: Dose Response confirmation of uHTS hits for small molecule antagonists of the CRF-binding protein and CRF-R2 receptor complex.; assay type: functional; conditions: read-out: IC50_Mean
T6 sequence (Q13324 whole entry): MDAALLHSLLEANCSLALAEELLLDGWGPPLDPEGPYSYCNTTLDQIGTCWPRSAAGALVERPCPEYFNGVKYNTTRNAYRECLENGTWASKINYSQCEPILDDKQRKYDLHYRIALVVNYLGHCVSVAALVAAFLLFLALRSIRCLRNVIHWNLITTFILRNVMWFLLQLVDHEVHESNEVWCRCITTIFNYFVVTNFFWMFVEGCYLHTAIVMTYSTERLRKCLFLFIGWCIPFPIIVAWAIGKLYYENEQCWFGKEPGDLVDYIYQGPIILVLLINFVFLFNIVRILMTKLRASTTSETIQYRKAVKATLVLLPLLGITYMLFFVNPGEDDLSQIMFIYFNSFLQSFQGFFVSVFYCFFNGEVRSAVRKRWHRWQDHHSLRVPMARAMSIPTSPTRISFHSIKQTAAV
T6 sequence (P24387 whole entry): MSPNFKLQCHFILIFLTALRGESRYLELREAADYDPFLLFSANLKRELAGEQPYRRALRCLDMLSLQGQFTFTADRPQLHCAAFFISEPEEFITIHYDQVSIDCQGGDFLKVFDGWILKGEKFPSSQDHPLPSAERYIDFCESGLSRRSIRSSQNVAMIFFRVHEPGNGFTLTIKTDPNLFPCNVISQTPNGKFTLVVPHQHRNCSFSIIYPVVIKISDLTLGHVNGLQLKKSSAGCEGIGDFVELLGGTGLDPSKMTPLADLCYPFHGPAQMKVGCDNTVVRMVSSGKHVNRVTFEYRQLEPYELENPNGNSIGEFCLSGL

[20] = target: T6, Corticotropin-releasing factor receptor 2/Corticotropin-releasing factor-binding protein; test: activators of CRF receptor 2 with binding protein – uHTS hits, confirmation (AID 602473); assay type: functional; conditions: read-out: EC50_Mean

Chain of Peroxisome proliferator-activated receptor gamma/Nuclear receptor coactivator 3 (P37231 whole entry): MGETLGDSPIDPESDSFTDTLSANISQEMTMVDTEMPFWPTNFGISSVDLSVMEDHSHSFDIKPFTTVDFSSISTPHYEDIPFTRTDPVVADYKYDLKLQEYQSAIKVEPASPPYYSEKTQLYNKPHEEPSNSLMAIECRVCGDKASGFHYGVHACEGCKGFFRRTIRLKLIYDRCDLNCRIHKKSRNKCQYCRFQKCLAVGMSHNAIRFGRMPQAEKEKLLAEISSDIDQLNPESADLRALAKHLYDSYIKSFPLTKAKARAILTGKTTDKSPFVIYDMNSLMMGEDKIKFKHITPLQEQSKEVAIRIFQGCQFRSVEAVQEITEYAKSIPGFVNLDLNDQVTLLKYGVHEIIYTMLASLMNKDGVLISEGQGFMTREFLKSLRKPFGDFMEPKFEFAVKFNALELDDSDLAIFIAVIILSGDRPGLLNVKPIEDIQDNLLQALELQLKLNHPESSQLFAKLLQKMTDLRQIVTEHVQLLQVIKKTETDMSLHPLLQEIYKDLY
Chain of Peroxisome proliferator-activated receptor gamma/Nuclear receptor coactivator 3 (Q9Y6Q9 whole entry, further chain): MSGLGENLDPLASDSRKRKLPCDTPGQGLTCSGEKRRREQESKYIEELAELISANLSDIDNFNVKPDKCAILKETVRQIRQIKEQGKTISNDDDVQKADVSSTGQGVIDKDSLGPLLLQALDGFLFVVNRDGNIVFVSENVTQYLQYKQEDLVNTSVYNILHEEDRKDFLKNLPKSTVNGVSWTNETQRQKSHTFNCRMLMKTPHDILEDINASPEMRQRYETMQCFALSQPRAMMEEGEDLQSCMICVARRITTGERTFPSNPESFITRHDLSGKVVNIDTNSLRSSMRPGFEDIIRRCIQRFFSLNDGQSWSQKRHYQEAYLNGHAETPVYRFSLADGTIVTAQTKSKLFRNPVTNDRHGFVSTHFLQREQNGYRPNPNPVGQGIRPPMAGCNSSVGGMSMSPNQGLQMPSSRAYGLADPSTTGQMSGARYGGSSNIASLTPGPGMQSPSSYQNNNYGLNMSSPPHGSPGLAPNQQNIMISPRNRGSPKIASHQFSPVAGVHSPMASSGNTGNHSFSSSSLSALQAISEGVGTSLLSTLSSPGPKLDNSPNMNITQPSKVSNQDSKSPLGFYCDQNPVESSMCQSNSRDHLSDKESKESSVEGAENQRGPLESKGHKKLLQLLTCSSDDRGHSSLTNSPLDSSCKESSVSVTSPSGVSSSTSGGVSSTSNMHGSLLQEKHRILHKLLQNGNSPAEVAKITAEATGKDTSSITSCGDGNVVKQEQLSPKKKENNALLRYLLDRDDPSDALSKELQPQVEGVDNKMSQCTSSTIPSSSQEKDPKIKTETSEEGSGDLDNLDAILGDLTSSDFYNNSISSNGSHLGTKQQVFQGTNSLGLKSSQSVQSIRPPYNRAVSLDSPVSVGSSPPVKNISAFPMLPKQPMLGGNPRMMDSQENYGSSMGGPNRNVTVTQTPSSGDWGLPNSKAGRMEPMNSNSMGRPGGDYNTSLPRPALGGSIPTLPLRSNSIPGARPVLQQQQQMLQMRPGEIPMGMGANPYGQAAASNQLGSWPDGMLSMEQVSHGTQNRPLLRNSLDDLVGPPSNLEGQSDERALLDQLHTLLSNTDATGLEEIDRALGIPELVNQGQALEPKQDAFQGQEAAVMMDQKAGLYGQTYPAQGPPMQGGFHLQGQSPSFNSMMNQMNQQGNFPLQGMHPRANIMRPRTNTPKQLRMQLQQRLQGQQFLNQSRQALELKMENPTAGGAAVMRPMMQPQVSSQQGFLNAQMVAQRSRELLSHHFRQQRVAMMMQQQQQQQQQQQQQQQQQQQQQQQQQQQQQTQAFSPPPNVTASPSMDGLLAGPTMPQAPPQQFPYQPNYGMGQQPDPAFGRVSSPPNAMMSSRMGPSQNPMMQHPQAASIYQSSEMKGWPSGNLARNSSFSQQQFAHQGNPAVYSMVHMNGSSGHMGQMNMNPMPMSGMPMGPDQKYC
Chain of Peroxisome proliferator-activated receptor gamma/Nuclear receptor coactivator 2 (P37231 whole entry): as the sequence (P37231 whole entry) above
Chain of Peroxisome proliferator-activated receptor gamma/Nuclear receptor coactivator 2 (Q15596 whole entry, further chain): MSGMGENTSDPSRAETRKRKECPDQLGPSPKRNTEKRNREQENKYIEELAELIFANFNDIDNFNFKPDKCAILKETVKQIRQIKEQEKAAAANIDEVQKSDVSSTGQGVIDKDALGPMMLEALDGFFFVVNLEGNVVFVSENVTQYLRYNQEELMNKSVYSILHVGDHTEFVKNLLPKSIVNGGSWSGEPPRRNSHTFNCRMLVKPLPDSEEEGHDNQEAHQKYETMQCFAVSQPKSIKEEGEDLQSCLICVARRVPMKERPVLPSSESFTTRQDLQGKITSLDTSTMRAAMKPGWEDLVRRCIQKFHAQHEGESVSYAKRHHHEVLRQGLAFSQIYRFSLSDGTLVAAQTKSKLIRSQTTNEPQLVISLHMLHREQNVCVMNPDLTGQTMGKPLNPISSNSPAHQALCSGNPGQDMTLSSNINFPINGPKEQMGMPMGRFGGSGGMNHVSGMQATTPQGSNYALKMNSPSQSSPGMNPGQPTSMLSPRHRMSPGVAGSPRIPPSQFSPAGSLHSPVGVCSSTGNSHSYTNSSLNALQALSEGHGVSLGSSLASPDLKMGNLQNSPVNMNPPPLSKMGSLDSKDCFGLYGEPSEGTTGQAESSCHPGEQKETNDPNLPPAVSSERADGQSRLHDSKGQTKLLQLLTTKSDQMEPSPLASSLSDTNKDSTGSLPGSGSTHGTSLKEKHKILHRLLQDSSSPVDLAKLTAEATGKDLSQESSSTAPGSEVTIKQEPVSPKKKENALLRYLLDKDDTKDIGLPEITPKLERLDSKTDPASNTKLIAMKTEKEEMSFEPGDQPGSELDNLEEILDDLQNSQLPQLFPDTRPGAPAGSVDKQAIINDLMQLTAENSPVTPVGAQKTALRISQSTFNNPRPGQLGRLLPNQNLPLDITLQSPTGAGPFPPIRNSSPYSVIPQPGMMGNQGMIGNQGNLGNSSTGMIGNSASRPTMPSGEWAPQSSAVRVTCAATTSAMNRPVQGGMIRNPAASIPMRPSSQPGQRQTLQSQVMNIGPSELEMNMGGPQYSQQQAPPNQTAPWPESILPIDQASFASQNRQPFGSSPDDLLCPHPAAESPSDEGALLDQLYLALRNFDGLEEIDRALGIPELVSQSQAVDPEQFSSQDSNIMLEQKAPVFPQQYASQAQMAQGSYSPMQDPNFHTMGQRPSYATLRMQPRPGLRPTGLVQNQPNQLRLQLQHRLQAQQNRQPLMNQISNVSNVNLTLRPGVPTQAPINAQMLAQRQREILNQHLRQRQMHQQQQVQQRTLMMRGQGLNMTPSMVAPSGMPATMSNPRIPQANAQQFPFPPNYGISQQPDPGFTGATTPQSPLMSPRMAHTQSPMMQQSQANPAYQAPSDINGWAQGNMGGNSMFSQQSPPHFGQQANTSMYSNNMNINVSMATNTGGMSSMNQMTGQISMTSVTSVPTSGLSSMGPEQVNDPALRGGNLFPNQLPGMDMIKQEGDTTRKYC
Chain of Large T antigen (P03070 whole entry): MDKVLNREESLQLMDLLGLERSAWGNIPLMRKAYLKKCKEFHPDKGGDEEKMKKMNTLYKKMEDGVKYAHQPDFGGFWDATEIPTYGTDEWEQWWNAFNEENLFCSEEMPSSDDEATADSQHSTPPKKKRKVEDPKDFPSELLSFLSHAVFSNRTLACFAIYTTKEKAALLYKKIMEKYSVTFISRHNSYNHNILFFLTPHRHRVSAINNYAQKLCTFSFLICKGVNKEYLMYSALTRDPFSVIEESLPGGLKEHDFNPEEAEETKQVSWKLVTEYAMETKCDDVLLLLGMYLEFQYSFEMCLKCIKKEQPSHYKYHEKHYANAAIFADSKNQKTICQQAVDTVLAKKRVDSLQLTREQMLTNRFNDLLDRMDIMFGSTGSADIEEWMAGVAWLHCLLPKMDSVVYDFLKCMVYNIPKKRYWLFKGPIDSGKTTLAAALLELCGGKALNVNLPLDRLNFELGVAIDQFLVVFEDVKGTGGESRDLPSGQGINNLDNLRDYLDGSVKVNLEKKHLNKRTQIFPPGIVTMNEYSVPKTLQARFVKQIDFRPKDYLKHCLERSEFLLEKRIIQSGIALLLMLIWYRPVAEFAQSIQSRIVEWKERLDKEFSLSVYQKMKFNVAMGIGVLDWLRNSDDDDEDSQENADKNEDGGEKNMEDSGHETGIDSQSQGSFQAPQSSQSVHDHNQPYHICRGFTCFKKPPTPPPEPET

With `COCCNC(=O)c1ccc2c(c1)nc(C)n2-c1cccc(F)c1` the AC50 [1] was 98.8 µM (active).

With `Cn1c(=O)cc(SCC(=O)N2CCN(C(=O)c3ccco3)CC2)c2ccccc21` the EC50 [2] was > 79.4 µM (not active), the EC50 [3] was > 195 µM (not active) and the EC50 [4] was > 79.4 µM (inactive). The EC50 [5] was > 79.4 µM (not active).

With `COc1ccc(C(=O)CNc2ccccc2CO)cc1` the IC50 [6] was 26.1 µM (not active) and the EC50 [7] was > 40 µM (inactive).

With `CC1=NOC(=O)/C1=C\c1ccc(-c2ccccc2Br)o1` the AC50 [8] was 6.48 µM (active), the IC50 [9] was > 80 µM (inactive) and the AC50 [10] was > 70 µM (inactive). The EC50 [2] was > 79.4 µM (not active), the AC50 [11] was > 20 µM (inactive) and the IC50 [12] was 16.4 µM (active). For the same compound, the EC50 [4] was 9.24 µM (active) and the EC50 [5] was 5.02 µM (active).

For `Cc1[nH][nH]c(=O)c1N=Nc1ccccc1Cl`, the AC50 [1] was 28.9 µM (active).

For `Cc1ccnc(Nc2nc(-c3ccc(O)c(O)c3)cs2)c1`, the IC50 [13] was 41.3 µM (active), the CC50 [14] was 69.5 µM (active) and the AC50 [1] was 10.1 µM (active).

For `CCCCCCCCOC(=O)/C=C/c1c(C)nc(O)nc1O`, the EC50 [15] was > 150 µM (not active), the EC50 [16] was 2.38 µM (active) and the AC50 [17] was 2.59 µM (active). For the same compound, the EC50 [18] was 1.76 µM (active).

In the case of `NC(Cc1ccc(O)cc1)C(=O)NN=Cc1ccc(N(CCCl)CCCl)cc1` (stereo unspecified), the IC50 [19] is reported as > 47.1 µM (inactive), the EC50 [20] is reported as > 53 µM (inactive) and the AC50 [17] is reported as 31.4 µM (active).
